These compounds were tested against T1, human Cot/Tpl2 kinase (Homo sapiens, UniProt P41279) (assay: Tpl2/Cot kinase assay: GST-MEK1 phosphorylation detected by ELISA (DELFIA Eu)). Conditions: Table 2; Tpl2/Cot kinase, GST-MEK1 substrate, 50 uM ATP.
T1 construct: human Cot/Tpl2 kinase construct encoding residues 30-398; 6His (N); made in house; host or cells: Sf9 insect cells, baculovirus system (BD Biosciences)
Format: biochemical
In short: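 His-tagged human Tpl2 from Sf9 cells, Ni-affinity and size-exclusion purified (monomer). 0.4 nM Tpl2 with 35 nM GST-MEK1, 50 uM ATP, MOPS pH 7.2, 1% DMSO, 1 h at 30° C; EDTA stop. MEK1 Ser217/221 phosphorylation detected by anti-phospho-MEK1 and Eu-labelled secondary ELISA; IC50 fitted.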

T1 sequence (P41279 30-398): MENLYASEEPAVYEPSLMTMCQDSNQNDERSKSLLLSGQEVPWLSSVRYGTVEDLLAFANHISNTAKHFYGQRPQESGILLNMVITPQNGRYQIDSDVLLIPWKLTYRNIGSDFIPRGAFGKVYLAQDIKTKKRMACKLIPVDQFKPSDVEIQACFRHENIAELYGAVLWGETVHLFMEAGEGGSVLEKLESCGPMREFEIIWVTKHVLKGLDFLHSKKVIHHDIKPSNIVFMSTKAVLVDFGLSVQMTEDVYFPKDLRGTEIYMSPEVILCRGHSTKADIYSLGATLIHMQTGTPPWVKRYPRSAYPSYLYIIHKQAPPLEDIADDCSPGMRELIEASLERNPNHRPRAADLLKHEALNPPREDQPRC

SMILES	IC50 [nM]
N#Cc1cnc2ccc(Br)cc2c1Nc1ccc(Oc2ccccc2)cc1 [Example 336]	1000
N#Cc1cnc2ccc(NCCN3CCOCC3)cc2c1Nc1ccc(F)c(Cl)c1 [Example 337]	1000
N#Cc1cnc2ccc(NCCN3CCOCC3)cc2c1Nc1ccc(Oc2ccccc2)cc1 [Example 338]	150
COc1ccc(CNc2ccc3ncc(C#N)c(Nc4ccc(F)c(F)c4)c3c2)cn1 [Example 340]	440
N#Cc1cnc2ccc(NCc3ccc(=O)[nH]c3)cc2c1Nc1ccc(F)c(F)c1 [Example 341]	400
N#Cc1cnc2ccc(NCCN3CCOCC3)cc2c1Nc1cccc(C(F)(F)F)c1 [Example 342]	> 10000
Cn1cc(CNc2ccc3ncc(C#N)c(Nc4ccc(F)c(F)c4)c3c2)ccc1=O [Example 343]	1040
N#Cc1cnc2ccc(NCc3ccc(OCCN4CCOCC4)nc3)cc2c1Nc1ccc(F)c(F)c1 [Example 344]	1480
N#Cc1cnc2ccc(NCc3ccc(=O)n(CCN4CCOCC4)c3)cc2c1Nc1ccc(F)c(F)c1 [Example 345]	1700
N#Cc1cnc2ccc(NCc3ccc4c(c3)OCO4)cc2c1Nc1cccc(Cl)c1 [Example 346]	600
CN(C)CCCOc1ccc(CNc2ccc3ncc(C#N)c(Nc4cccc(Cl)c4)c3c2)cc1 [Example 347]	600
N#Cc1cnc2ccc(NCc3cccnc3)cc2c1Nc1cccc(Cl)c1 [Example 348]	90
CS(=O)(=O)c1ccc(CNc2ccc3ncc(C#N)c(Nc4cccc(Cl)c4)c3c2)cc1 [Example 349]	370
N#Cc1cnc2ccc(NCCN3CCOCC3)cc2c1Nc1cccc(Cl)c1 [Example 350]	690
N#Cc1cnc2ccc(NCCN3CCOCC3)cc2c1Nc1cccc(F)c1 [Example 351]	1900
CC(C)c1cccc(Nc2c(C#N)cnc3ccc(NCCN4CCOCC4)cc23)c1 [Example 352]	> 10000
N#Cc1cnc2ccc(NCCN3CCOCC3)cc2c1Nc1ccc(Sc2ccccc2)c(Cl)c1 [Example 353]	470
CN(C)c1cccc(Nc2c(C#N)cnc3ccc(NCCN4CCOCC4)cc23)c1 [Example 354]	> 10000
N#Cc1cnc2ccc(NCCN3CCOCC3)cc2c1Nc1ccc(Br)cc1 [Example 355]	> 10000
N#Cc1cnc2ccc(NCCN3CCOCC3)cc2c1Nc1ccc2[nH]ccc2c1 [Example 356]	> 10000
C#Cc1cccc(Nc2c(C#N)cnc3ccc(NCCN4CCOCC4)cc23)c1 [Example 357]	1300

SMILES	IC50 [nM]
N#Cc1cnc2ccc(NCCN3CCOCC3)cc2c1Sc1ccc(F)c(Cl)c1 [Example 358]	> 40000
CN(C)C(=O)c1cc(N)cc2c(Nc3cccc(Cl)c3)c(C#N)cnc12 [Example 359]	8400
N#Cc1cnc2ccc(NCc3ccccn3)cc2c1NC1CCCCC1 [Example 360]	210
N#Cc1cnc2ccc(NCc3ccccn3)cc2c1Nc1ccccc1 [Example 361]	250
N#Cc1cnc2c(Br)cc([N+](=O)[O-])cc2c1Nc1cccc(Cl)c1 [Example 362]	> 10000
N#Cc1cnc2ccc(N)cc2c1NC1CCN(Cc2ccccc2)CC1 [Example 363]	> 40000
CN1CCC(Nc2ccc3ncc(C#N)c(Nc4ccc(F)c(Cl)c4)c3c2)CC1 [Example 364]	> 10000
N#Cc1cnc2c(Br)cc(N)cc2c1Nc1cccc(Cl)c1 [Example 365]	390
CC(C)N1CCC(Nc2ccc3ncc(C#N)c(Nc4ccc(F)c(Cl)c4)c3c2)CC1 [Example 366]	25500
N#Cc1cnc2ccc(NCCN3CCOCC3)cc2c1NC1CCN(Cc2ccccc2)CC1 [Example 367]	> 40000
CCc1nc(C)c(CNc2ccc3ncc(C#N)c(Nc4ccc(F)c(Cl)c4)c3c2)[nH]1 [Example 369]	640
Cc1c(CNc2ccc3ncc(C#N)c(Nc4ccc(F)c(Cl)c4)c3c2)ncn1C [Example 370]	3.2
COCCOc1ccc(CNc2ccc3ncc(C#N)c(Nc4ccc(F)c(Cl)c4)c3c2)cc1Br [Example 371]	380
N#Cc1cnc2c(Br)cc(NCCN3CCOCC3)cc2c1Nc1cccc(Cl)c1 [Example 372]	420
Cc1c(CNc2ccc3ncc(C#N)c(Nc4ccc(F)c(Cl)c4)c3c2)ncn1CCN1CCOCC1 [Example 373]	14
N#Cc1cnc2c(Br)cc(NCc3cccnc3)cc2c1Nc1cccc(Cl)c1 [Example 374]	36
CN(C)C(=O)c1cc(NCc2cccnc2)cc2c(Nc3cccc(Cl)c3)c(C#N)cnc12 [Example 376]	400
CCN1CCC(Nc2ccc3ncc(C#N)c(Nc4ccc(F)c(Cl)c4)c3c2)C(C)C1 (centres unmarked) [Example 377]	> 40000
N#Cc1cnc2ccc(NC3CCN(Cc4ccccc4)CC3)cc2c1Nc1ccc(F)c(Cl)c1 [Example 378]	1700
CC(C)(C)OC(=O)N1CCC(Nc2ccc3ncc(C#N)c(Nc4ccc(F)c(Cl)c4)c3c2)CC1 [Example 379]	> 40000
COc1cc(NCc2cccnc2)cc2c(Nc3ccc(F)c(Cl)c3)c(C#N)cnc12 [Example 380]	1100

SMILES	IC50 [nM]
CC(C)(C)OC(=O)COc1ccc(CNc2ccc3ncc(C#N)c(Nc4ccc(F)c(Cl)c4)c3c2)cc1Br [Example 381]	> 40000
N#Cc1cnc2ccc(NCc3cc[nH]n3)cc2c1Nc1ccc(F)c(Cl)c1 [Example 382]	74
COc1cc(NCCN2CCOCC2)cc2c(Nc3ccc(F)c(Cl)c3)c(C#N)cnc12 [Example 383]	5200
N#Cc1cnc2ccc(NCc3ccc[n+]([O-])c3)cc2c1Nc1ccc(F)c(Cl)c1 [Example 384]	130
Cc1cc(CNc2ccc3ncc(C#N)c(Nc4ccc(F)c(Cl)c4)c3c2)n[nH]1 [Example 385]	110
COc1cc(NCc2cccnc2)cc2c(Nc3ccc(C)c(O)c3)c(C#N)cnc12 [Example 386]	> 40000
CN(C)Cc1cc(NCCN2CCOCC2)cc2c(Nc3cccc(Br)c3)c(C#N)cnc12 [Example 387]	> 40000
Cc1ncn(C)c1CNc1ccc2ncc(C#N)c(Nc3ccc(F)c(Cl)c3)c2c1 [Example 388]	200
Cn1cc(Cl)c(CNc2ccc3ncc(C#N)c(Nc4ccc(F)c(Cl)c4)c3c2)n1 [Example 389]	> 40000
N#Cc1cnc2ccc(N)cc2c1Nc1ccc(Cc2ccccc2)cc1 [Example 390]	43
N#Cc1cnc2ccc(NCCN3CCOCC3)cc2c1Nc1ccc(Cc2ccccc2)cc1 [Example 391]	26
Cc1cc2ncc(C#N)c(Nc3ccc(F)c(Cl)c3)c2cc1N [Example 392]	> 40000
N#Cc1cnc2c(Br)cc(N)cc2c1Nc1ccc(F)c(Cl)c1 [Example 393]	520
N#Cc1cnc2c(C(F)(F)F)cc(N)cc2c1Nc1ccc(F)c(Cl)c1 [Example 394]	5800
CN(C)C(=O)c1cc([N+](=O)[O-])cc2c(Nc3ccc(F)c(Cl)c3)c(C#N)cnc12 [Example 395]	> 40000
CN(C)C(=O)c1cc(N)cc2c(Nc3ccc(F)c(Cl)c3)c(C#N)cnc12 [Example 396]	6000
COC(=O)c1cccc(CNc2ccc3ncc(C#N)c(Nc4ccc(F)c(Cl)c4)c3c2)c1 [Example 397]	320
N#Cc1cnc2ccc(NCc3cccc(C(=O)O)c3)cc2c1Nc1ccc(F)c(Cl)c1 [Example 398]	180
N#Cc1cnc2ccc(NCc3cccc(C(N)=O)c3)cc2c1Nc1ccc(F)c(Cl)c1 [Example 399]	460
N#Cc1cnc2ccc(NCc3cnc[nH]3)cc2c1NC1CCCCCC1 [Example 400]	490
CC(C)(C)Nc1c(C#N)cnc2ccc(NCc3cnc[nH]3)cc12 [Example 401]	3100

SMILES	IC50 [nM]
N#Cc1cnc2ccc(N)cc2c1NC1CCCC1 [Example 402]	> 40000
CC(C)(C)Nc1c(C#N)cnc2ccc(NCc3cccc(C#N)c3)cc12 [Example 403]	11500
CC(C)(C)Nc1c(C#N)cnc2ccc(NCc3ccn[nH]3)cc12 [Example 405]	> 40000
CC(C)(C)Nc1c(C#N)cnc2ccc(NCc3cccc[n+]3[O-])cc12 [Example 406]	5400
Cn1ccnc1CNc1ccc2ncc(C#N)c(NC(C)(C)C)c2c1 [Example 407]	5100
CC(C)(C)Nc1c(C#N)cnc2ccc(NCc3ccc(S(N)(=O)=O)cc3)cc12 [Example 408]	21900
N#Cc1cnc2c(Cl)cc(N)cc2c1Nc1ccc(F)c(Cl)c1 [Example 409]	920
N#Cc1cnc2ccc(NCc3cccc[n+]3[O-])cc2c1NC1CCCC1 [Example 410]	1300
N#Cc1cnc2ccc(NCc3ccc(S(N)(=O)=O)cc3)cc2c1NC1CCCC1 [Example 411]	7300
N#Cc1cnc2ccc(NCc3ccn[nH]3)cc2c1NC1CCCC1 [Example 413]	1600
CS(=O)(=O)c1cccc(CNc2ccc3ncc(C#N)c(NC4CCCC4)c3c2)c1 [Example 414]	2900
N#Cc1cnc2ccc(NCc3ccccc3)cc2c1NC1CCCC1 [Example 415]	21300
N#Cc1ccccc1CNc1ccc2ncc(C#N)c(NC3CCCC3)c2c1 [Example 416]	1700
N#Cc1cnc2ccc(NCc3cnc[nH]3)cc2c1NC1CCCC1 [Example 417]	300
N#Cc1cnc2ccc(NCc3cccnc3)cc2c1NC1CCCC1 [Example 418]	2600
N#Cc1cnc2ccc(NCCN3CCOCC3)cc2c1NC1CCCC1 [Example 419]	19700
N#Cc1cccc(CNc2ccc3ncc(C#N)c(NC4CCCC4)c3c2)c1 [Example 420]	2200
N#Cc1cnc2c(O)cc(N)cc2c1Nc1ccc(F)c(Cl)c1 [Example 421]	10600
N#Cc1c(Nc2ccc(F)c(Cl)c2)c2cc(NCc3cccc[n+]3[O-])ccc2[nH]c1=O [Example 422]	> 40000
N#Cc1cnc2c(Br)cc(NCc3ccc(OC(F)(F)C(F)F)cc3)cc2c1Nc1ccc(F)c(Cl)c1 [Example 424]	> 40000

From patent publication US20060264460A1 (Wyeth, priority 2005, published 2006)
